Test results published in the NIST ThermoML archive (doi:10.1021/je050085p).
Numbers after ± are expanded uncertainties.

Assays:
[1] = 101.33 kPa, Liquid
[2] = refractive index (Na D-line) (dimensionless); details: 101.33 kPa, Liquid, Standard Abbe refractometry
[3] = xn = mol fraction of the nth substance listed; details: 308.15 K, 101 kPa, Liquid
[4] = refractive index (Na D-line) (dimensionless); xn = mol fraction of the nth substance listed; details: 308.15 K, 101 kPa, Liquid, Standard Abbe refractometry
[5] = excess molar enthalpy (molar enthalpy of mixing); xn = mol fraction of the nth substance listed; details: 308.15 K, 101 kPa, Liquid, Flow calorimetry

OCc1ccccc1 [benzenemethanol]
Details	mass density, [1] [kg/m3]	refractive index, [2]
298.15 K	1041.65 ± 0.22	1.5377 ± 0.0005
308.15 K	1033.64 ± 0.21	1.535 ± 0.0005

OCc1ccccc1 [benzenemethanol] + COc1ccccc1
Details	excess molar enthalpy [kcal/mol]	mass density [kg/m3]	refractive index
[3], x2 = 0.0519	–	1030.85 ± 0.21	–
[3], x2 = 0.0898	–	1028.81 ± 0.22	–
[3], x2 = 0.1854	–	1023.62 ± 0.24	–
[3], x2 = 0.2883	–	1018 ± 0.27	–
[3], x2 = 0.3766	–	1013.19 ± 0.29	–
[3], x2 = 0.4911	–	1006.94 ± 0.33	–
[3], x2 = 0.5916	–	1001.47 ± 0.36	–
[3], x2 = 0.6747	–	996.96 ± 0.39	–
[3], x2 = 0.7745	–	991.59 ± 0.43	–
[3], x2 = 0.9039	–	984.73 ± 0.48	–
[3], x2 = 0.9448	–	982.58 ± 0.5	–
[3], x2 = 0.9723	–	981.14 ± 0.51	–
[4], x2 = 0.0519	–	–	1.5335 ± 0.0007
[4], x2 = 0.0898	–	–	1.5324 ± 0.0007
[4], x2 = 0.1854	–	–	1.5298 ± 0.0007
[4], x2 = 0.2883	–	–	1.527 ± 0.0007
[4], x2 = 0.3766	–	–	1.5247 ± 0.0007
[4], x2 = 0.4911	–	–	1.5218 ± 0.0007
[4], x2 = 0.5916	–	–	1.5193 ± 0.0007
[4], x2 = 0.6747	–	–	1.5173 ± 0.0007
[4], x2 = 0.7745	–	–	1.5149 ± 0.0007
[4], x2 = 0.9039	–	–	1.5118 ± 0.0007
[4], x2 = 0.9448	–	–	1.5108 ± 0.0007
[4], x2 = 0.9723	–	–	1.5102 ± 0.0007
[5], x2 = 0.038	0.022 ± 0.000621	–	–
[5], x2 = 0.0732	0.0461 ± 0.00108	–	–
[5], x2 = 0.1059	0.0655 ± 0.00148	–	–
[5], x2 = 0.1364	0.0877 ± 0.00194	–	–
[5], x2 = 0.1916	0.121 ± 0.00263	–	–
[5], x2 = 0.2401	0.148 ± 0.00311	–	–
[5], x2 = 0.3216	0.182 ± 0.00382	–	–
[5], x2 = 0.3871	0.203 ± 0.0043	–	–
[5], x2 = 0.4866	0.232 ± 0.00502	–	–
[5], x2 = 0.5872	0.249 ± 0.00526	–	–
[5], x2 = 0.6547	0.254 ± 0.0055	–	–
[5], x2 = 0.7398	0.252 ± 0.0055	–	–
[5], x2 = 0.7913	0.24 ± 0.00502	–	–
[5], x2 = 0.8505	0.211 ± 0.00454	–	–
[5], x2 = 0.8835	0.185 ± 0.00406	–	–
[5], x2 = 0.9191	0.146 ± 0.00311	–	–
[5], x2 = 0.9578	0.0877 ± 0.00201	–	–

CCOc1ccccc1 [ethoxybenzene]
Details	mass density, [1] [kg/m3]	refractive index, [2]
298.15 K	–	1.5058 ± 0.0007
308.15 K	950.86 ± 0.55	1.5002 ± 0.0007

CCOc1ccccc1 [ethoxybenzene] + OCCc1ccccc1
Details	excess molar enthalpy [kcal/mol]	mass density [kg/m3]	refractive index
[3], x1 = 0.0656	–	1004.96 ± 0.53	–
[3], x1 = 0.1079	–	1002.5 ± 0.52	–
[3], x1 = 0.1726	–	998.71 ± 0.52	–
[3], x1 = 0.3041	–	990.99 ± 0.52	–
[3], x1 = 0.3803	–	986.52 ± 0.52	–
[3], x1 = 0.4826	–	980.37 ± 0.52	–
[3], x1 = 0.5243	–	978.09 ± 0.52	–
[3], x1 = 0.5904	–	974.22 ± 0.52	–
[3], x1 = 0.6819	–	968.87 ± 0.52	–
[3], x1 = 0.7929	–	962.44 ± 0.52	–
[3], x1 = 0.8881	–	957 ± 0.52	–
[3], x1 = 0.9469	–	953.74 ± 0.52	–
[3], x1 = 0.9881	–	951.5 ± 0.52	–
[4], x1 = 0.0656	–	–	1.5252 ± 0.0007
[4], x1 = 0.1079	–	–	1.524 ± 0.0007
[4], x1 = 0.1726	–	–	1.5223 ± 0.0007
[4], x1 = 0.3041	–	–	1.5187 ± 0.0007
[4], x1 = 0.3803	–	–	1.5166 ± 0.0007
[4], x1 = 0.4826	–	–	1.5137 ± 0.0007
[4], x1 = 0.5243	–	–	1.5126 ± 0.0007
[4], x1 = 0.5904	–	–	1.5108 ± 0.0007
[4], x1 = 0.6819	–	–	1.5083 ± 0.0007
[4], x1 = 0.7929	–	–	1.5054 ± 0.0007
[4], x1 = 0.8881	–	–	1.5029 ± 0.0007
[4], x1 = 0.9469	–	–	1.5014 ± 0.0007
[4], x1 = 0.9881	–	–	1.5005 ± 0.0007
[5], x1 = 0.0378	0.027 ± 0.000717	–	–
[5], x1 = 0.0728	0.0534 ± 0.00124	–	–
[5], x1 = 0.1054	0.0772 ± 0.00172	–	–
[5], x1 = 0.1358	0.0979 ± 0.00215	–	–
[5], x1 = 0.1907	0.135 ± 0.00287	–	–
[5], x1 = 0.2391	0.159 ± 0.00335	–	–
[5], x1 = 0.3203	0.193 ± 0.00406	–	–
[5], x1 = 0.3858	0.218 ± 0.00478	–	–
[5], x1 = 0.4852	0.245 ± 0.00526	–	–
[5], x1 = 0.5857	0.268 ± 0.00574	–	–
[5], x1 = 0.6534	0.275 ± 0.00598	–	–
[5], x1 = 0.7388	0.273 ± 0.00598	–	–
[5], x1 = 0.7904	0.264 ± 0.00574	–	–
[5], x1 = 0.8498	0.232 ± 0.00502	–	–
[5], x1 = 0.8829	0.204 ± 0.0043	–	–
[5], x1 = 0.9188	0.161 ± 0.00359	–	–
[5], x1 = 0.9577	0.0965 ± 0.00222	–	–

CCOc1ccccc1 [ethoxybenzene] + OCc1ccccc1
Details	excess molar enthalpy [kcal/mol]	mass density [kg/m3]	refractive index
[3], x1 = 0.0642	–	1027.61 ± 0.22	–
[3], x1 = 0.0826	–	1025.86 ± 0.22	–
[3], x1 = 0.1663	–	1018.18 ± 0.23	–
[3], x1 = 0.1751	–	1017.38 ± 0.23	–
[3], x1 = 0.2585	–	1009.89 ± 0.25	–
[3], x1 = 0.3363	–	1003.06 ± 0.27	–
[3], x1 = 0.4598	–	992.51 ± 0.32	–
[3], x1 = 0.544	–	985.53 ± 0.35	–
[3], x1 = 0.6369	–	978.04 ± 0.39	–
[3], x1 = 0.7572	–	968.65 ± 0.43	–
[3], x1 = 0.8621	–	960.77 ± 0.47	–
[3], x1 = 0.9361	–	955.37 ± 0.5	–
[4], x1 = 0.0642	–	–	1.5322 ± 0.0007
[4], x1 = 0.0826	–	–	1.5313 ± 0.0007
[4], x1 = 0.1663	–	–	1.5279 ± 0.0007
[4], x1 = 0.1751	–	–	1.5275 ± 0.0007
[4], x1 = 0.2585	–	–	1.5244 ± 0.0007
[4], x1 = 0.3363	–	–	1.5216 ± 0.0007
[4], x1 = 0.4598	–	–	1.5172 ± 0.0007
[4], x1 = 0.544	–	–	1.5142 ± 0.0007
[4], x1 = 0.6369	–	–	1.5111 ± 0.0007
[4], x1 = 0.7572	–	–	1.5071 ± 0.0007
[4], x1 = 0.8621	–	–	1.5039 ± 0.0007
[4], x1 = 0.9361	–	–	1.5018 ± 0.0007
[5], x1 = 0.0328	0.0247 ± 0.000669	–	–
[5], x1 = 0.0636	0.0454 ± 0.00108	–	–
[5], x1 = 0.0924	0.0677 ± 0.00153	–	–
[5], x1 = 0.1195	0.0854 ± 0.00189	–	–
[5], x1 = 0.1691	0.118 ± 0.00263	–	–
[5], x1 = 0.2135	0.147 ± 0.00311	–	–
[5], x1 = 0.2893	0.177 ± 0.00382	–	–
[5], x1 = 0.3517	0.205 ± 0.0043	–	–
[5], x1 = 0.4488	0.232 ± 0.00502	–	–
[5], x1 = 0.5499	0.252 ± 0.0055	–	–
[5], x1 = 0.6196	0.262 ± 0.00574	–	–
[5], x1 = 0.7095	0.266 ± 0.00574	–	–
[5], x1 = 0.7651	0.259 ± 0.0055	–	–
[5], x1 = 0.8301	0.232 ± 0.00502	–	–
[5], x1 = 0.8669	0.209 ± 0.00454	–	–
[5], x1 = 0.907	0.169 ± 0.00359	–	–
[5], x1 = 0.9513	0.104 ± 0.00234	–	–
